Test results reported in paper PMC7933930, “Development of a small molecule that corrects misfolding and increases secretion of Z α1‐antitrypsin” (EMBO Molecular Medicine, 2021).
Where two headings read alike, the source gives them in different places.

Assays:
Bile Salt Export Pump = Bile Salt Export Pump (Homo sapiens, UniProt O95342); assay: Off‐target panel: Bile Salt Export Pump; format: in vitro ADME; details: Inhibition, read-out: Mean (PXC50) (converted)
Protocol: (§1) GSK716 selectivity and PK properties were profiled in order to investigate the suitability of GSK716 for progression into in vivo studies and the potential for taking it forward as a clinical candidate for testing in humans. Since GSK716 results in loss of inhibitory activity of α1‐antitrypsin, the effect of the compound was assessed on other closely related serpins. […] Furthermore, there were no off‐target effects in a panel of assays considered predictive of known safety liabilities that precluded further development of GSK716 (Table EV1).

M α1‐antitrypsin = molecular target: T1, M α1‐antitrypsin (Homo sapiens, UniProt P01009); assay: Association kinetics by intrinsic tryptophan fluorescence (stopped flow), M α1‐antitrypsin; format: binding
T1 construct: purified from the plasma of M (wild‐type) and Z α1‐antitrypsin homozygotes; from tissue; host or cells: human plasma of M (wild-type) homozygotes
Description: The shape of the curves and native mass spectrometry (not shown) are consistent with a single high‐affinity compound binding site. No binding of the fluorescent derivative to polymers of Z α1‐antitrypsin was observed, indicating conformational selectivity for the monomeric protein (Fig 1D). The rate of interaction of the compound with the target was monitored through changes in intrinsic tryptophan fluorescence (Dafforn et al, 1999); this property was used to determine the second‐order association rate constants for GSK716 binding to Z (4.1 × 10^4 M^−1 s^−1) and M α1‐antitrypsin (2.1 × 10^2 M^−1 s^−1; Fig 1E and F). […] Therefore, the selectivity of the compound for Z over M α1‐antitrypsin is dominated by the difference in the rate of association rather than dissociation.
Kinetic parameters of GSK716 binding to M, Z, S (Glu264Val) and Baghdad (Ala336Pro) (Haq et al, 2016) α1‐antitrypsin were measured by detecting intrinsic tryptophan fluorescence of the protein (excitation at 280 nm and detection of emission at 320 nm) on a stopped flow apparatus (Applied Photophysics) (Kim & Yu, 1996; Dafforn et al, 1999). […]

NULL CHO-K1 = assay: Off‐target panel: NULL CHO-K1 Agonist (DRX); format: cell-based; details: Cricetulus griseus, read-out: Mean (PXC50)
Protocol: as §1

human serum albumin = human serum albumin (Homo sapiens, UniProt P02768); format: in vitro ADME
P-gp (MDR1) = assay: Permeability in MDR1‐MDCK cells with pgp inhibitor; format: in vitro ADME; details: dog
Protocol: Permeability in MDR1‐MDCK cells in the presence of pgp inhibitor GF120918 was high at 248 and 240 nm/s for the apical to basal and basal to apical directions, respectively (N53531‐23 for DI).
MDR1‐MDCK cells were used between passage numbers 6–30. Cells were seeded onto Millipore Multiscreen Transwell plates at 3.4 × 10^5 cells/cm^2. The cells were cultured in DMEM and media was changed on day 3. On day 4 the permeability study was performed. Cell culture and assay incubations were carried out at 37°C in an atmosphere of 5% v/v CO2 with a relative humidity of 95%. On the day of the assay, the monolayers were prepared by rinsing both apical and basolateral surfaces twice with Hanks Balanced Salt Solution (HBSS) at the desired pH warmed to 37°C. Cells were then incubated with HBSS at the desired pH in both apical and basolateral compartments for 40 min to stabilise physiological parameters. Where applicable, a P‐gp inhibitor (elacridar, 2 µM) was included on both sides of the monolayer for the equilibration period. For assessment of apical‐basolateral permeability, HBSS was removed from the apical compartment and replaced with test compound dosing solution. The apical compartment insert was then placed into a companion plate containing fresh buffer (containing 0.5% v/v DMSO or, where applicable, a P‐gp inhibitor, maintaining a 0.5% v/v DMSO concentration). […]

PXR (rat) = PXR (rat) (Rattus norvegicus, UniProt Q9R1A7); assay: Off‐target panel: PXR (rat); format: cell-based
Protocol: as §1

[1] = molecular target: L-type Ca channel (CaV1.2) (Homo sapiens, UniProt Q13936); assay: in vitro; format: cell-based
Protocol: as §1

PDE3A = PDE3A (Homo sapiens, UniProt Q14432); assay: Off‐target panel: PDE3A; format: biochemical; details: Inhibition, read-out: Mean (PXC50)
Protocol: as §1

Muscarinic M1 = molecular target: T2, Muscarinic M1 (Homo sapiens, UniProt P11229); assay: Off‐target panel: Muscarinic M1; format: cell-based
T2 sequence (P11229 1-460): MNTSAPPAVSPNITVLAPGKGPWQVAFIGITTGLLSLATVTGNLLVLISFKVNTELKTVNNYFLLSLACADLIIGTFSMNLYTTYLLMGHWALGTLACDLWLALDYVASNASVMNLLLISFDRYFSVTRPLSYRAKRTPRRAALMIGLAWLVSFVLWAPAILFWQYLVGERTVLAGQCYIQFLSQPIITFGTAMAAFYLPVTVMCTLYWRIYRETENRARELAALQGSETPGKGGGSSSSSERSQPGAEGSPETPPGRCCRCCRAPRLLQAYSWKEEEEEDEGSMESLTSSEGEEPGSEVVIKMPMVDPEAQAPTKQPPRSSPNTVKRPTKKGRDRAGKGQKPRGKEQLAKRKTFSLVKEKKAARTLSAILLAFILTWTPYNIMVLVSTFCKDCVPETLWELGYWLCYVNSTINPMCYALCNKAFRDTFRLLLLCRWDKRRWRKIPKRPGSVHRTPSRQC
Protocol: as §1

Serotonin 5HT2A = Serotonin 5HT2A (Homo sapiens, UniProt P28223); assay: Off‐target panel: Serotonin 5HT2A; format: cell-based
Protocol: as §1

Dopamine D1 = Dopamine D1 (Homo sapiens, UniProt P21728); assay: Off‐target panel: Dopamine D1; format: cell-based
Protocol: as §1

Dopamine D2 (DRD2S) = Dopamine D2 (DRD2S) (Homo sapiens, UniProt P14416); assay: Off‐target panel: Dopamine D2 (DRD2S) (DRX); format: cell-based
Protocol: as §1

OPRK1 = OPRK1 (Homo sapiens, UniProt P41145); assay: Off‐target panel: OPRK1; format: cell-based
Protocol: as §1

T1 sequence (P01009 25-418): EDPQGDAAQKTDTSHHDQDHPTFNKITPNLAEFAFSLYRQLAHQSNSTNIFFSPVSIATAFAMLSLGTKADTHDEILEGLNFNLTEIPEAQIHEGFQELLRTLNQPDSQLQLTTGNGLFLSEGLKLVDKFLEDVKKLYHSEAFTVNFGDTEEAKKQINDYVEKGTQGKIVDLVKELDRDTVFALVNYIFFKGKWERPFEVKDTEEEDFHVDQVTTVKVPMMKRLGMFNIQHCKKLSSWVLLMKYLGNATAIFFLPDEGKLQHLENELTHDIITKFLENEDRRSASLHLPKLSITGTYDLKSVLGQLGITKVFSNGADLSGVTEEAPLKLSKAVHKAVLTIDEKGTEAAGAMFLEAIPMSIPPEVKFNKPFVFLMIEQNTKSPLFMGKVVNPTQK
Dopamine D2 (DRD2S), sequence (P14416 1-414 isoform P14416-2): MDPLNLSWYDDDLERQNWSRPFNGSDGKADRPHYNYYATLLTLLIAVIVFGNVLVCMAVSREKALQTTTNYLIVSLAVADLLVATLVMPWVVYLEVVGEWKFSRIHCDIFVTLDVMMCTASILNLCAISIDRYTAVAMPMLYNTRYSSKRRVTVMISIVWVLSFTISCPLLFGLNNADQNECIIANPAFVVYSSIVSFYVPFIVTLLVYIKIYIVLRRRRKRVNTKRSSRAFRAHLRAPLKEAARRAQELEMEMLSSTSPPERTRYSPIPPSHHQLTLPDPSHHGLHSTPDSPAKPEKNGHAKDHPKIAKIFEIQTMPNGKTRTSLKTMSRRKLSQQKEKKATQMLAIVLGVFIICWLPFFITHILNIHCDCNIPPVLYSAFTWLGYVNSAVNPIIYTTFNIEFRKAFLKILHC
Serotonin 5HT2A, sequence (P28223 whole entry): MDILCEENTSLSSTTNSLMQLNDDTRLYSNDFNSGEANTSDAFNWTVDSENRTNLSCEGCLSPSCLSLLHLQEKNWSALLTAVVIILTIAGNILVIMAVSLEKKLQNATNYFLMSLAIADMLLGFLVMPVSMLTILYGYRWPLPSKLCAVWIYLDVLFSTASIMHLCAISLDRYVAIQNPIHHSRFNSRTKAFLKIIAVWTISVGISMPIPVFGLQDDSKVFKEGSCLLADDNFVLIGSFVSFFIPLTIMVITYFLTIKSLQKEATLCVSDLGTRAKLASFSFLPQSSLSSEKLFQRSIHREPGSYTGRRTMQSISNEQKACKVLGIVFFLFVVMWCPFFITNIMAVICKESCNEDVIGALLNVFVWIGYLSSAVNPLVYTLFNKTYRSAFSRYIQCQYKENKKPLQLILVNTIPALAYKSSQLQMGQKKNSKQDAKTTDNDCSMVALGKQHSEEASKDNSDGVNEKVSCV
Dopamine D1, sequence (P21728 whole entry): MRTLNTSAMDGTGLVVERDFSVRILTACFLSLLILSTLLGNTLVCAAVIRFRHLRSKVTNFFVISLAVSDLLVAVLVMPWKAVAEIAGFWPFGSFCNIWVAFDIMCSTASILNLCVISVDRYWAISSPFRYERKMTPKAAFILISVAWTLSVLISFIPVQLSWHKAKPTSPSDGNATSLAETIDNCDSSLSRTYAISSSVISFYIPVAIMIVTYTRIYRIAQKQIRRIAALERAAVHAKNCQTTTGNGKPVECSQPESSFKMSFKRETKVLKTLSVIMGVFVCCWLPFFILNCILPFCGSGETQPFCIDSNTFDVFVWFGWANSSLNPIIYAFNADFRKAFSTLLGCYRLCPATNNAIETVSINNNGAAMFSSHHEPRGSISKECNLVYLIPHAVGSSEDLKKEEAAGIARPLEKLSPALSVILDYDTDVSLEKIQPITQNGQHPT
OPRK1, sequence (P41145 whole entry, species assumed): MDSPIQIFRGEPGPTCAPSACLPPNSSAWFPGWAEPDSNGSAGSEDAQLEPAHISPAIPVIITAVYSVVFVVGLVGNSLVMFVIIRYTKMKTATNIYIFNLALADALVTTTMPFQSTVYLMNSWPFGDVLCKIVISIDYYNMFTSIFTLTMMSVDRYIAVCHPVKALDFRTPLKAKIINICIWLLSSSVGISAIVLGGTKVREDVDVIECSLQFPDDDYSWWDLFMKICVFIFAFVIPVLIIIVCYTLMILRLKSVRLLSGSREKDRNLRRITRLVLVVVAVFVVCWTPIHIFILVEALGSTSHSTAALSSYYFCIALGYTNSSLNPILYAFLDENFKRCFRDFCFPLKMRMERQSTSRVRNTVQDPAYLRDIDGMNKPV
human serum albumin, sequence (P02768 25-609): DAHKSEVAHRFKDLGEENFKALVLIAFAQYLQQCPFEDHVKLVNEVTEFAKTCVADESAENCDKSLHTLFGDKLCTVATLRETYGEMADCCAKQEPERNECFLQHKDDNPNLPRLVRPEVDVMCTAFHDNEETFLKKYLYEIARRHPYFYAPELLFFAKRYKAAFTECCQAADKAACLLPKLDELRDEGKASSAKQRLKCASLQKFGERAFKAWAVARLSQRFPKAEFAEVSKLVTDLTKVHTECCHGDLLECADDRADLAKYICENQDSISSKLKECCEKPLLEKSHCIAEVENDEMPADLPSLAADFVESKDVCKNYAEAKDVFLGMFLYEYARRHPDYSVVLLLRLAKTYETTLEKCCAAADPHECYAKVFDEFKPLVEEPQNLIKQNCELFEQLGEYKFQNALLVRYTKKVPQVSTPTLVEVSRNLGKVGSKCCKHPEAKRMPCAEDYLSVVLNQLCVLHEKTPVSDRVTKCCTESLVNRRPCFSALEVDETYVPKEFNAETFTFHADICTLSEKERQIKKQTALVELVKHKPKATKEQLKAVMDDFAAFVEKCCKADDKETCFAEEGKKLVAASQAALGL
PDE3A, sequence (Q14432 whole entry, species assumed): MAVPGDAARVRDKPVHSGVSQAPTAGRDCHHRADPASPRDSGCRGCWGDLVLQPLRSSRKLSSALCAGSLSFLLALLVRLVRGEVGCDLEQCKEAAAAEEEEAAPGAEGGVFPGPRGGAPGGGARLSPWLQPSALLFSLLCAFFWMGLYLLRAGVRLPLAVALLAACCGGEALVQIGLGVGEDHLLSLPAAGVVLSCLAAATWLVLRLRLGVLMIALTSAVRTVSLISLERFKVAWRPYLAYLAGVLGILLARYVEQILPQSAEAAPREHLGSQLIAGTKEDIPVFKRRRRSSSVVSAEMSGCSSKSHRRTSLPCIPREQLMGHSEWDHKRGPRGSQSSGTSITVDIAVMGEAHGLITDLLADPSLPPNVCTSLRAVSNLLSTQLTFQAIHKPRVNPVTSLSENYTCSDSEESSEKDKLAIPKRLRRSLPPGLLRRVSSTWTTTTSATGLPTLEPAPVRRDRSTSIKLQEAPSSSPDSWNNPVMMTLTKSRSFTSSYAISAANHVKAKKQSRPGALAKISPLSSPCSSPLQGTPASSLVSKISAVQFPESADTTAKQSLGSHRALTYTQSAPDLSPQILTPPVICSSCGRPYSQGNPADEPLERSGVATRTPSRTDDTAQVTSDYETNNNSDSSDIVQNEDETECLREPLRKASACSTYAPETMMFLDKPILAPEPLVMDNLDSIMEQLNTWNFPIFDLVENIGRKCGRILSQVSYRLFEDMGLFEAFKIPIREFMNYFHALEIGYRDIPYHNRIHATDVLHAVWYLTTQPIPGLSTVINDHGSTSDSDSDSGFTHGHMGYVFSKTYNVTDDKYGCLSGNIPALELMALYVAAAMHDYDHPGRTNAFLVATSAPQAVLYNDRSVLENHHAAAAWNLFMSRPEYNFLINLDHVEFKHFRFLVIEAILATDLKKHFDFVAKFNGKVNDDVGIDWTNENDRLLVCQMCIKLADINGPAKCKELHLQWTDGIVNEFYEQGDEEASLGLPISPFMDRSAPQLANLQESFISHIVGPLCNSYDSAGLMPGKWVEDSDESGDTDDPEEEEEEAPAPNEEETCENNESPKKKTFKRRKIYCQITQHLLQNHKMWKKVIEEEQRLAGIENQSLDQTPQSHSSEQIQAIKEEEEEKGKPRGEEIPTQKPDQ
PXR (rat), sequence (Q9R1A7 whole entry): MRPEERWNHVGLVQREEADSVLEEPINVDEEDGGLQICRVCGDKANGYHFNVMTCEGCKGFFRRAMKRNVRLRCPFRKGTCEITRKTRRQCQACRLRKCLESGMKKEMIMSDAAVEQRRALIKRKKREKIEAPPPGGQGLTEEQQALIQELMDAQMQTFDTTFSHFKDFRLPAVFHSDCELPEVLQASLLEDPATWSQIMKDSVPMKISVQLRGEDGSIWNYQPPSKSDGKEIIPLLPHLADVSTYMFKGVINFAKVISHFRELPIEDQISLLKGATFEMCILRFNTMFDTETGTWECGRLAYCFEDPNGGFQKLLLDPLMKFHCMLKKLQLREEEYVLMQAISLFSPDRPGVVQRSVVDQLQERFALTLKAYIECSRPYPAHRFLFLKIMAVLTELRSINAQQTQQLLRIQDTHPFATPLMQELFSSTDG

Q: With CCC[C@@H](NC(=O)c1cccc2c1CC(=O)N2)[C@@H](O)c1cccc(F)c1C [GSK716] as the compound, how does the IC50 (Bile Salt Export Pump) read?
A: Its IC50 is 100 µM.

Q: And the koff (M α1‐antitrypsin; calculated from association rate constant and affinity, read-out: first‐order dissociation rate constant)?
A: The koff was 1.6e-05 s⁻¹.

Q: And the kon (M α1‐antitrypsin; read-out: second‐order association rate constant)?
A: Its kon is 210 M⁻¹ s⁻¹.

Q: What about the EC50 (NULL CHO-K1) of the same compound?
A: Its EC50 is > 100 µM.

Q: And the “binding to human serum albumin” value (human serum albumin)?
A: Its value is 84.2%.

Q: And the Papp at 60 min (P-gp (MDR1); with pgp inhibitor GF120918, read-out: permeability, apical to basal)?
A: The Papp at 60 min was 24.8 ×10⁻⁶ cm/s.

Q: And the Papp at 60 min (P-gp (MDR1); with pgp inhibitor GF120918, read-out: permeability, basal to apical)?
A: The Papp at 60 min was 24 ×10⁻⁶ cm/s.

Q: What about the EC50 (PXR (rat)) of the same compound?
A: The EC50 was 12.6 µM.

Q: What about the IC50 [1] of the same compound?
A: Its IC50 is < 2.14 µM.

Q: What about the IC50 (PDE3A) of the same compound?
A: The IC50 was > 100 µM.

Q: And the EC50 (Muscarinic M1)?
A: The EC50 was > 50.1 µM.

Q: What about the IC50 (Muscarinic M1) of the same compound?
A: The IC50 was > 50.1 µM.

Q: What about the EC50 (Serotonin 5HT2A) of the same compound?
A: The EC50 was > 25.1 µM.

Q: What about the IC50 (Serotonin 5HT2A) of the same compound?
A: The IC50 was > 25.1 µM.

Q: What about the IC50 (Dopamine D1) of the same compound?
A: Its IC50 is > 100 µM.

Q: And the EC50 (Dopamine D2 (DRD2S))?
A: Its EC50 is > 100 µM.

Q: And the IC50 (Dopamine D2 (DRD2S))?
A: Its IC50 is > 100 µM.

Q: And the EC50 (OPRK1)?
A: Its EC50 is > 100 µM.
